From patent US20240174618A1, “SUBSTITUTED (2-HETEROARYLOXYPHENYL)SULFONATES, SALTS THEREOF AND THEIR USE AS HERBICIDAL AGENTS” (Bayer Aktiengesellschaft, priority 2021, published 2024)

Columns and labels:
Assay type in all cases: in vivo
[1] = tested on: Echinochloa crus-galli (ECHCG); test: A. Herbicidal pre-emergence efficacy, ECHCG; conditions: scored visually after about 3 weeks vs untreated controls
In short: (§1)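 Applied before emergence onto covering soil at rates of 1280 g/ha or less, using 600 L/ha spray water with 0.5% additive. Scoring: visual % efficacy after ~3 weeks, greenhouse.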

Veronica persica (VERPE) [2] = test: A. Herbicidal pre-emergence efficacy, VERPE; conditions: for Pre-emergence efficacy against VERPE: dosage 80 g/ha
In short: as §1

Stellaria media (STEME) = test: B. Herbicidal post-emergence efficacy, STEME
In short: (§2)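 First, seeds were sown in sandy loam and grown 2 to 3 weeks under controlled greenhouse conditions. Next, foliage at the one-leaf stage received the formulated compound in water with 0.5% additive (600 L/ha, 1280 g/ha or less). Finally, damage was rated visually after about 3 weeks against untreated plants.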

Veronica persica (VERPE) [3] = test: B. Herbicidal post-emergence efficacy, VERPE
In short: as §2

[4] = tested on: Abutilon theophrasti (ABUTH); test: C. Herbicidal pre-emergence efficacy, ABUTH; conditions: scored after about 3 weeks
In short: (§3)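 Pre-emergence test: formulated compounds sprayed as aqueous suspension or emulsion with 0.5% additive at 600 l/ha onto soil covering sown seeds, at rates corresponding to 320 g/ha or less. After about 3 weeks in greenhouse, efficacy scored visually as percent versus untreated controls (100% = plants dead).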

[5] = tested on: Echinochloa crus-galli (ECHCG); test: C. Herbicidal pre-emergence efficacy, ECHCG; conditions: scored after about 3 weeks
In short: as §3

[6] = tested on: Pharbitis purpurea (PHBPU); test: E. Herbicidal post-emergence efficacy, PHBPU
In short: (§4)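 Compounds applied at 320 g/ha or less as a foliar spray (600 l/ha, 0.5% additive) to one-leaf-stage greenhouse plants grown in sandy loam. Damage is visually scored in percent relative to untreated plants after about 3 weeks.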

[7] = tested on: Polygonum convolvulus (POLCO); test: E. Herbicidal post-emergence efficacy, POLCO
In short: as §4

SMILES	Pre-emergence efficacy against ECHCG ([1]; 320 g/ha) [%]	Pre-emergence efficacy against ECHCG ([1]; 1280 g/ha) [%]	Pre-emergence efficacy against VERPE in % (Veronica persica (VERPE) [2]; 320 g/ha) [%]	Pre-emergence efficacy against VERPE in % (Veronica persica (VERPE) [2]; 1280 g/ha) [%]	Pre-emergence efficacy against VERPE (Veronica persica (VERPE) [2]) [%]	Post-emergence efficacy against STEME (Stellaria media (STEME); 80 g/ha) [%]	Post-emergence efficacy against STEME (Stellaria media (STEME); 320 g/ha) [%]	Post-emergence efficacy against STEME (Stellaria media (STEME); 1280 g/ha) [%]	Post-emergence efficacy against VERPE (Veronica persica (VERPE) [3]; 80 g/ha) [%]	Post-emergence efficacy against VERPE (Veronica persica (VERPE) [3]; 320 g/ha) [%]	Post-emergence efficacy against VERPE (Veronica persica (VERPE) [3]; 1280 g/ha) [%]	Pre-emergence efficacy against ABUTH ([4]; 320 g/ha) [%]	Pre-emergence efficacy against ECHCG ([5]; 80 g/ha) [%]	Pre-emergence efficacy against ECHCG ([5]; 320 g/ha) [%]	Post-emergence efficacy against PHBPU in % ([6]; application rate 320 g/ha) [%]	Post-emergence efficacy against POLCO in % ([7]; application rate 80 g/ha) [%]	Post-emergence efficacy against POLCO in % ([7]; application rate 320 g/ha) [%]	Pre-emergence efficacy against ECHCG ([1]; 80 g/ha) [%]	Pre-emergence efficacy against ABUTH ([4]; 80 g/ha) [%]	Post-emergence efficacy against PHBPU in % ([6]; application rate 80 g/ha) [%]
O=S(=O)(CCCCl)Oc1ccccc1Oc1ncc(F)cn1 [Example I-5]	100	100	100	100	90	100	100	100	100	100	100	100	100	100	80	90	100	–	–	–
CCCCS(=O)(=O)Oc1ccccc1Oc1ncc(Cl)cn1 [Example I-6]	100	100	–	90	–	–	90	90	–	90	90	100	100	100	100	90	100	100	90	80
O=S(=O)(CCCC(F)(F)F)Oc1c(Cl)cccc1Oc1ncc(Cl)cn1 [Example I-39]	90	100	100	100	90	90	90	90	90	90	90	100	90	100	100	–	100	–	100	90
O=S(=O)(CCCC(F)(F)F)Oc1c(F)cccc1Oc1ncc(Cl)cn1 [Example I-49]	90	90	100	100	90	90	90	90	–	–	90	100	100	100	100	100	100	90	100	100
O=S(=O)(CCC(F)(F)F)Oc1c(Cl)cccc1Oc1ncc(Br)cn1 [Example I-32]	–	100	90	100	90	100	100	100	100	100	100	100	–	90	80	80	100	–	90	80
O=S(=O)(CCCCl)Oc1c(F)cccc1Oc1ncc(Cl)cn1 [Example I-14]	100	100	100	100	100	100	100	100	100	100	100	100	100	100	100	80	90	100	90	100
O=S(=O)(CCCCl)Oc1ccccc1Oc1ncc(Cl)cn1 [Example I-2]	100	100	100	100	100	90	100	100	100	100	100	100	90	100	100	100	100	90	100	–
O=S(=O)(CC1CC(F)(F)C1)Oc1c(F)cccc1Oc1ncc(Cl)cn1 [Example I-53]	100	100	100	100	100	90	90	90	90	90	90	100	100	100	100	100	100	100	100	100
O=S(=O)(CCC(F)(F)F)Oc1c(F)cccc1Oc1ncc(Cl)cn1 [Example I-48]	90	90	100	100	90	90	90	90	–	90	90	100	100	100	100	100	100	90	100	100
